Test results taken from patent publication US7732618B2, “Benzimidazole acetic acids exhibiting CRTH2 receptor antagonism and uses thereof” (Wyeth, priority 2004, dated 2010).

What follows are molecules tested against T1, human CRTH2 (Homo sapiens, UniProt Q9Y5Y4) (assay: CRTH-2 binding assay (scintillation proximity assay, inhibition of 3H-PGD2 binding)). Settings: membranes from 293EBNA-hCRTH2 cells, 3H-PGD2 3.6 nM; Ki calculated from IC50.
T1 sequence (Q9Y5Y4 1-395): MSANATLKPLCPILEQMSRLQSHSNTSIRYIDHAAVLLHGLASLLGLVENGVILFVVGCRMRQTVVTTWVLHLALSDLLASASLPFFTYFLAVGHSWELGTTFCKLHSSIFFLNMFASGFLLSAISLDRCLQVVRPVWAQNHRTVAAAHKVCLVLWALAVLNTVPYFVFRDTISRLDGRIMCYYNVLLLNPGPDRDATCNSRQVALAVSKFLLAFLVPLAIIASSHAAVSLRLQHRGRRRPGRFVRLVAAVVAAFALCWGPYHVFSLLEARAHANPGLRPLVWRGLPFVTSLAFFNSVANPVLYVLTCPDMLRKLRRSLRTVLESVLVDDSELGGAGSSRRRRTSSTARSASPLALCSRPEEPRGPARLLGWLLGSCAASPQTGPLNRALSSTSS
Design: expressed in transfected cells; host or cells: 293EBNA-hCRTH2 cells (membrane preparation)
Description: A CRTH2 binding assay was developed to measure the ability of compounds to inhibit the binding of PGD2 to human CRTH2 using a scintillation proximity assay.
Membranes containing hCRTH2 receptors were prepared from 293EBNA-hCRTH2 cells (a 293EBNA cell line stably expressing human CRTH2). The cells were grown to confluency, harvested and washed with PBS. The cells were resuspended in 10 mM Hepes pH 7.4, 1 mM EDTA and protease inhibitors and incubated for 30 min on ice. The cells were homogenized and centrifuged for 10 min at 1000×g. The supernate was centrifuged for 30 min at 100,000×g and the membrane pellet was then resuspended in 10 mM Hepes pH 7.4 and 1 mM EDTA. The protein concentration of the membrane preparation was determined by Bradford assay (Bio-Rad).
The ability of compounds to inhibit the interaction of PGD2 to human CRTH2 was determined at seven compound concentrations. Compounds were serially diluted in DMSO then diluted into CRTH2 buffer (10 mM Hepes pH 7.4, 1 mM EDTA, 10 mM MnCl2) to six times the final desired concentration. 20 μL of the diluted compounds were transferred into non-surface binding 96-well plates (Corning). Each concentration was done in triplicate. In addition to test compounds, each plate contained 12 control wells. Six of these wells contained 20 μL of CRTH2 buffer. These wells were used to measure total binding. Six wells contained 20 μL of CRTH2 buffer plus 1.5 mM indomethacin. These wells were used to measure non-specific binding. Next, 293EBNA-hCRTH2 membranes were resuspended in CRTH2 buffer with glycerol (10 mM Hepes pH 7.4, 1 mM EDTA, 10 mM MnCl2, 25% glycerol) so that the final concentration was approximately 20 μg/100 μL. Polylysine-coated yttrium silicate SPA beads (Amersham) were added to the membrane mix to a concentration of 0.4 mg/100 μL and finally ^3H-PGD2 was added to the membrane/SPA bead mix to 3.6 nM. 100 μL of the membrane/SPA bead/^3H-PGD2 mix was added to each well of the non-surface binding plates containing the diluted compound or controls. The plates were incubated for 2 hours at room temperature with shaking and then the plates were counted on a Microbeta scintillation counter (Perkin Elmer) for 1 min per well.
IC50 values were determined from the experimental results by nonlinear regression using Prism 4.0 software. The IC50 values were then used in conjunction with the Kd for hCRTH2 and the ^3H-PGD2 concentration used in the experiment to calculate the Ki for each compound.

| SMILES | Ki |
| --- | --- |
| CCCc1nc2cc(NS(=O)(=O)c3ccc(F)cc3)ccc2n1CC(=O)O [Example 1, [5-(4-Fluoro-benzenesulfonylamino)-2-propyl-benzoimidazol-1-yl]-acetic acid] | < 1000 nM |
| CCCC(C)c1nc2cc(NS(=O)(=O)c3ccc(F)cc3)ccc2n1CC(=O)O (stereo not shown) [Example 2, [5-(4-Fluoro-benzenesulfonylamino)-2-(1-methyl-butyl)-benzoimidazol-1-yl]-acetic acid] | < 1000 nM |
| CCc1nc2cc(NS(=O)(=O)c3ccc(F)cc3)ccc2n1CC(=O)O [Example 3, [2-Ethyl-5-(4-fluoro-benzenesulfonylamino)-benzoimidazol-1-yl]-acetic acid] | < 1000 nM |
| CC(C)=CCCC(C)c1nc2cc(NS(=O)(=O)c3ccc(F)cc3)ccc2n1CC(=O)O (stereo not shown) [Example 4, [2-(1,5-Dimethyl-hex-4-enyl)-5-(4-fluoro-benzenesulfonylamino)-benzoimidazol-1-yl]-acetic acid] | < 10000 nM |
| CSCCc1nc2cc(NS(=O)(=O)c3ccc(F)cc3)ccc2n1CC(=O)O [Example 5, [5-(4-Fluoro-benzenesulfonylamino)-2-(2-methylsulfanyl-ethyl)-benzoimidazol-1-yl]-acetic acid] | < 10000 nM |
| CC/C=C/c1nc2cc(NS(=O)(=O)c3ccc(F)cc3)ccc2n1CC(=O)O [Example 6, [2-But-1-enyl-5-(4-fluoro-benzenesulfonylamino)-benzoimidazol-1-yl]-acetic acid] | < 10000 nM |
| CC(C)Cc1nc2cc(NS(=O)(=O)c3ccc(F)cc3)ccc2n1CC(=O)O [Example 7, [5-(4-Fluoro-benzenesulfonylamino)-2-isobutyl-benzoimidazol-1-yl]-acetic acid] | < 10000 nM |
| CC(Cc1nc2cc(NS(=O)(=O)c3ccc(F)cc3)ccc2n1CC(=O)O)CC(C)(C)C (stereo not shown) [Example 8, [5-(4-Fluoro-benzenesulfonylamino)-2-(2,4,4-trimethyl-pentyl)-benzoimidazol-1-yl]-acetic acid] | > 10000 nM |
| CCCCCc1nc2cc(NS(=O)(=O)c3ccc(F)cc3)ccc2n1CC(=O)O [Example 9, [5-(4-Fluoro-benzenesulfonylamino)-2-pentyl-benzoimidazol-1-yl]-acetic acid] | > 10000 nM |
| CCCCC(CC)c1nc2cc(NS(=O)(=O)c3ccc(F)cc3)ccc2n1CC(=O)O (stereo not shown) [Example 10, [2-(1-Ethyl-pentyl)-5-(4-fluoro-benzenesulfonylamino)-benzoimidazol-1-yl]-acetic acid] | > 10000 nM |
| C=CCOC(=O)NCCc1nc2cc(NS(=O)(=O)c3ccc(F)cc3)ccc2n1CC(=O)O [Example 11, [2-(2-Allyloxycarbonylamino-ethyl)-5-(4-fluoro-benzenesulfonylamino)-benzoimidazol-1-yl]-acetic acid] | < 10000 nM |
| CCCCc1nc2cc(NS(=O)(=O)c3ccc(F)cc3)ccc2n1CC(=O)O [Example 12, [2-Butyl-5-(4-fluoro-benzenesulfonylamino)-benzoimidazol-1-yl]-acetic acid] | < 1000 nM |
| CC(C)c1nc2cc(NS(=O)(=O)c3ccc(F)cc3)ccc2n1CC(=O)O [Example 13, [5-(4-Fluoro-benzenesulfonylamino)-2-isopropyl-benzoimidazol-1-yl]-acetic acid] | < 1000 nM |
| CCCc1nc2cc(N(Cc3ccccc3)S(=O)(=O)c3ccc(F)cc3)ccc2n1CC(=O)O [Example 14, {5-[Benzyl-(4-fluoro-benzenesulfonyl)-amino]-2-propyl-benzoimidazol-1-yl}-acetic acid] | < 100 nM |
| CCCCc1nc2cc(N(Cc3ccccc3)S(=O)(=O)c3ccc(F)cc3)ccc2n1CC(=O)O [Example 15, {5-[Benzyl-(4-fluoro-benzenesulfonyl)-amino]-2-butyl-benzoimidazol-1-yl}-acetic acid] | < 1000 nM |
| CC(C)c1nc2cc(N(Cc3ccccc3)S(=O)(=O)c3ccc(F)cc3)ccc2n1CC(=O)O [Example 16, {5-[Benzyl-(4-fluoro-benzenesulfonyl)-amino]-2-isopropyl-benzoimidazol-1-yl}-acetic acid] | < 1000 nM |
| CCCCc1nc2cc(N(C)S(=O)(=O)c3ccc(F)cc3)ccc2n1CC(=O)O [Example 17, {2-Butyl-5-[(4-fluoro-benzenesulfonyl)-methyl-amino]-benzoimidazol-1-yl}-acetic acid] | < 1000 nM |
| CCCc1nc2cc(N(CC(=O)OCC)S(=O)(=O)c3ccc(F)cc3)ccc2n1CC(=O)O [Example 18, {5-[Ethoxycarbonylmethyl-(4-fluoro-benzenesulfonyl)-amino]-2-propyl-benzoimidazol-1-yl}-acetic acid] | < 1000 nM |
| CCCc1nc2cc(N(Cc3ccc(F)cc3)S(=O)(=O)c3ccc(F)cc3)ccc2n1CC(=O)O [Example 19, {5-[(4-Fluoro-benzenesulfonyl)-(4-fluoro-benzyl)-amino]-2-propyl-benzoimidazol-1-yl}-acetic acid] | < 100 nM |
| CCCc1nc2cc(N(CCC(C)C)S(=O)(=O)c3ccc(F)cc3)ccc2n1CC(=O)O [Example 20, {5-[(4-Fluoro-benzenesulfonyl)-(3-methyl-butyl)-amino]-2-propyl-benzoimidazol-1-yl}-acetic acid] | < 100 nM |
| CCCc1nc2cc(N(C(C)C)S(=O)(=O)c3ccc(F)cc3)ccc2n1CC(=O)O [Example 21, {5-[(4-Fluoro-benzenesulfonyl)-isopropyl-amino]-2-propyl-benzoimidazol-1-yl}-acetic acid] | < 100 nM |
| CCCc1nc2cc(N(Cc3csc(C)n3)S(=O)(=O)c3ccc(F)cc3)ccc2n1CC(=O)O [Example 22, {5-[(4-Fluoro-benzenesulfonyl)-(2-methyl-thiazol-4-ylmethyl)-amino]-2-propyl-benzoimidazol-1-yl}-acetic acid] | < 1000 nM |
| CCCc1nc2cc(N(CC3COc4ccccc4O3)S(=O)(=O)c3ccc(F)cc3)ccc2n1CC(=O)O (stereo not shown) [Example 23, {5-[(2,3 -Dihydro-benzo[1,4]dioxin-2-ylmethyl)-(4-fluoro-benzenesulfonyl)-amino]-2-propyl-benzoimidazol-1-yl}-acetic acid] | < 100 nM |
| CCCc1nc2cc(N(Cc3c(C)noc3C)S(=O)(=O)c3ccc(F)cc3)ccc2n1CC(=O)O [Example 24, {5-[(3,5-Dimethyl-isoxazol-4-ylmethyl)-(4-fluoro-benzenesulfonyl)-amino]-2-propyl-benzoimidazol-1-yl}-acetic acid] | < 1000 nM |
| CCCc1nc2cc(NC(=O)OC(C)(C)C)ccc2n1CC(=O)O [Example 25, (5-tert-Butoxycarbonylamino-2-propyl-benzoimidazol-1-yl)-acetic acid] | < 10000 nM |
| CCCc1nc2cc(N3C(=O)c4ccccc4S3(=O)=O)ccc2n1CC(=O)O [Example 26, [2-Propyl-5-(1,1,3-trioxo-1,3-dihydro-1λ^6-benzo[d]isothiazol-2-yl)-benzoimidazol-1-yl]-acetic acid] | < 10000 nM |
| CCCc1nc2cc(N(Cc3ccc(F)cc3)S(=O)(=O)c3cccc(F)c3)ccc2n1CC(=O)O [Example 27, {5-[(3-Fluoro-benzenesulfonyl)-(4-fluoro-benzyl)-amino]-2-propyl-benzoimidazol-1-yl}-acetic acid] | < 1000 nM |
| CCCc1nc2cc(N(Cc3ccc(F)cc3)S(=O)(=O)c3ccccc3F)ccc2n1CC(=O)O [Example 28, {5-[(2-Fluoro-benzenesulfonyl)-(4-fluoro-benzyl)-amino]-2-propyl-benzoimidazol-1-yl}-acetic acid] | < 1000 nM |
